Laboratory results reported in US8778954B2, “Phenylpyridine derivative and medicinal agent comprising same” (Kowa Company, Ltd., priority 2009, dated 2014).

How the values were obtained:
[1] = biological target: T1, angiotensin II type 1 receptor (Oryctolagus cuniculus, UniProt P34976); experiment: Angiotensin II receptor antagonistic activity in isolated rabbit blood vessels (thoracic aorta ring, angiotensin II-induced contraction); assay type: cell-based; settings: 0.1 μM test compound, angiotensin II (10 nM)-induced contraction, read-out: Angiotensin II activity inhibitiom rate (%) at 0.1 μM concentration
T1 construct: By using a specimen of isolated rabbit blood vessels; from tissue; host or cells: rabbit (New Zealand White) thoracic aorta ring
T1 sequence (P34976 1-359): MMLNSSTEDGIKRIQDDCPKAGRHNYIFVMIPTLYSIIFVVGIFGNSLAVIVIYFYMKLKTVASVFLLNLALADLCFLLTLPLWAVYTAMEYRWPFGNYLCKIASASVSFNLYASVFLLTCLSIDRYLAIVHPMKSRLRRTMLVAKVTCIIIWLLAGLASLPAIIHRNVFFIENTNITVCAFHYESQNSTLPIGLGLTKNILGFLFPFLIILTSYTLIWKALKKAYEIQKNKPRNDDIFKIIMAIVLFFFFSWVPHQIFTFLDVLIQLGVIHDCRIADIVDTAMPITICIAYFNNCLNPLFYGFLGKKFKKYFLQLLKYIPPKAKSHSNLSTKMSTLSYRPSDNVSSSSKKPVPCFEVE
Method: By using a specimen of isolated rabbit blood vessels, antagonistic activity of the compounds of the invention against angiotensin II type 1 receptor was estimated from a dose-response curve of angiotensin II-induced blood vessel contraction. Specifically, the specimen of thoracic aorta ring of a rabbit (New Zealand White: male, 2.4 to 3.0 kg) was suspended in a magnus bath filled with Krebs-Henseleite buffer (composition: 118 mM NaCl, 4.7 mM KCl, 2.55 mM CaCl2, 1.18 mM MgSO4, 1.18 mM KH2PO4, 24.88 mM NaHCO3, and 11.1 mM D-glucose), and angiotensin II (10 nM)-induced contraction was obtained in the presence of the compounds of each test (1 nmol/L to 10 μmol/L). During the measurement, the inside temperature of the magnus bath was maintained at 37° C. and the bath was continuously ventilated with a sufficient amount of mixed gas (95% O2 and 5% CO2). The angiotensin II-induced contraction was converted into a relative value (%) that is based on the angiotensin II (0.1 μM)-induced contraction in the absence of the compounds of each example.

[2] = test system: spontaneously hypertensive rats (SHR); experiment: Hypotensive activity with tail cuff method in spontaneously hypertensive rats; assay type: in vivo, rat; settings: 3 and 10 mg/kg orally once a day for 7 days, 4, 24 and 72 hours after final administration, FIG. 1
Method: By using 19-week old spontaneously hypertensive rats (SHR), the body weight and the systolic blood pressure (SBP) of each rat were measured before administration of the medicine, and group separation was performed by blocking assignment so that there was no variation of these values between respective groups. Solvent control (0.5% methyl cellulose solution, MC), 3 mg/kg telmisartan, 3 and 10 mg/kg of the compound of Example 21, and 3 and 10 mg/kg of the compound of Example 23 were orally administered iteratively for 7 days, once a day. The blood pressure and the heart beat rate were measured with tail cuff method at 4, 24, and 72 hours after the administration of the final administration day. Specifically, the rat was put into a cylindrical positioner, maintained at 37° C., and the blood pressure and the heart beat rate were measured from the tail of the rat during the resting state using a non-invasive blood pressure meter (trade name: BP-98A, manufactured by Softron Co., Ltd., Tokyo, Japan). The blood pressure and the heart beat rate were measured for each individual three times or more in a row. When the difference of the systolic blood pressures between the consecutive measurement values was 5 mmHg or less, the average values of these measurement values were taken as data, except for the first measurement. […]

db/db mice = experiment: Impaired glucose tolerance improving activity in type 2 diabetes model mouse; assay type: in vivo; settings: oral once a day, Example 23 10 mg/kg, Example 21 30 mg/kg, telmisartan 30 mg/kg; for plasma glucose concentration: 2 weeks after initiation, FIG. 2; for AUC of plasma glucose in the glucose tolerance test (120 minutes after glucose solution): 4 weeks, glucose 2 g/kg, FIG. 3
Method: By using 7-week old db/db mice, the body weight and the plasma glucose concentration of each mouse were measured before administration of the medicine, and group separation was performed by blocking assignment so that there was no variation of these values between respective groups. Solvent control (0.5% MC), 5 mg/kg rosiglitazone, 30 mg/kg telmisartan, 10 mg/kg of the compound of Example 23, and 30 mg/kg of the compound of Example 21 were orally administered iteratively for 4 weeks, once a day. Blood collecting was performed from the orbital vein plexus, and the plasma glucose concentration was measured at 2 weeks after the initiation of the administration. Furthermore, oral glucose tolerance test was performed at 4 weeks after the initiation of the administration. Specifically, the mouse was fasted for 24 hours from the night before the glucose tolerance test, and then a glucose solution was orally administered at a dose of 2 g/kg. The blood was collected from the tail vein of the mouse at 15, 30, 60, and 120 minutes after the administration of the glucose solution, and the concentration of the plasma glucose was measured. The area surrounded with the measured plasma glucose concentration and the time was taken as the area under the curve (AUC), and AUC for 120 minutes after administration of the glucose solution was estimated from the trapezoidal method.
Vehicle, Rosiglitazone, Telmisartan, Compound 23, and Compound 21 in FIGS. 2 and 3 represent solvent control, rosiglitazone, telmisartan, the compound of Example 23, and the compound of Example 21, respectively. The vertical axis of FIG. 2 represents the plasma glucose concentration. The data in FIG. 2 represents individual values and average values of each individual. The vertical axis of FIG. 3 represents the area under the curve surrounded with the plasma glucose concentration and the time (for 120 minutes after administration of the glucose solution). The data in FIG. 3 represents individual values and average values of each individual. […] Such activities were not confirmed for the telmisartan administration group.

[3] = test system: Zucker diabetic fatty (ZDF) rats; experiment: Activity for diabetic nephropathy in Zucker diabetic fatty rats; assay type: in vivo, rat; settings: 3 mg/kg once a day for 15 weeks; for elimination amount of urinary total protein per 18 hours: FIG. 4; for plasma triglyceride concentration: FIG. 5; for plasma total cholesterol concentration: FIG. 6; for renal protecting activity (diabetic nephropathy): overall conclusion
Method: By using 8-week old Zucker diabetic fatty (ZDF) rats, the body weight, the elimination amount of urinary total protein (UTP), the plasma triglyceride concentration (TG), and the plasma total cholesterol concentration (TC) of each rat were measured before administration of the medicine, and group separation was performed by blocking assignment so that there was no variation of these values between respective groups. Solvent control (0.5% MC), 3 mg/kg telmisartan, 3 mg/kg of the compound of Example 21, and 3 mg/kg of the compound of Example 23 were administered iteratively for 15 weeks once a day. UTP, TG, and TC were measured according to a general method during the administration period at 4, 8, 12, and 15 weeks after the administration.
Vehicle, Telmisartan, Compound 23, and Compound 21 in FIGS. 4, 5, and 6 represent solvent control, telmisartan, the compound of Example 23, and the compound of Example 21, respectively. The horizontal axis of FIG. 4-1 represents time (weeks after administration), and the vertical axis represents the elimination amount of urinary total protein per 18 hours. The data in FIG. 4-1 represents average values of each individual in each point, wherein -●- represents Vehicle (solvent control), -♦- represents Telmisartan, -▪- represents Compound 23 (the compound of Example 23), and -▴- represents Compound 21 (the compound of Example 21). The vertical axis of FIG. 4-2 represents the elimination amount of urinary total protein per 18 hours. The data in FIG. 4-2 represents individual values and average values of each individual +standard deviation.
The vertical axis of FIG. 5 represents the plasma triglyceride concentration. The data in FIG. 5 represents individual values and average values of each individual.
The vertical axis of FIG. 6 represents the plasma total cholesterol concentration. The data in FIG. 6 represents individual values and average values of each individual.
Furthermore, it was believed that one reason for the potent activity may be related to improving activity of lipid metabolism, and it is believed that the potent activity is attributed to activities other than the angiotensin receptor antagonistic activity.

With `CCCCc1nc(C(C)C)n(-c2ncc(OCC)cn2)c(=O)c1Cc1ccc(-c2ccccc2-c2noc(=O)[nH]2)nc1` [Example 21, 3-{2-{5-{[4-butyl-1-(5-ethoxypyrimidin-2-yl)-2-isopropyl-6-oxo-1,6-dihydropyrimidin-5-yl]methyl}pyridin-2-yl}phenyl}-1,2,4-oxadiazol-5(4H)-one] the inhibition at 0.1 µM [1] was 70.3%, the “blood pressure lowering activity (change in systolic blood pressure from pre-administration)” value [2] was “potent blood pressure lowering activity dose-dependently that was equivalent or more to telmisartan” and the plasma glucose concentration (db/db mice) was “remarkable lowering activity of the plasma glucose concentration”. For the same compound, the “AUC of plasma glucose in the glucose tolerance test (120 minutes after glucose solution)” value (db/db mice) was “remarkably lowering AUC”, the “elimination amount of urinary total protein per 18 hours” value [3] was “remarkably inhibited increase of the elimination amount of urinary total protein, and their activity was more potent than that of telmisartan” and the plasma triglyceride concentration [3] was “remarkably lowered the plasma triglyceride concentration”. The “plasma total cholesterol concentration” value [3] was “remarkably lowered the plasma total cholesterol concentration, and such activity was more potent than that of telmisartan” and the “renal protecting activity (diabetic nephropathy)” value [3] was “potent renal protecting activity”.
For `CCCCc1nc(C2CC2)n(-c2ncc(OCC)cn2)c(=O)c1Cc1ccc(-c2ccccc2-c2noc(=O)[nH]2)nc1` [Example 23, 3-{2-{5-{[4-butyl-2-cyclopropyl-1-(5-ethoxypyrimidin-2-yl)-6-oxo-1,6-dihydropyrimidin-5-yl]methyl}pyridin-2-yl}phenyl}-1,2,4-oxadiazol-5(4H)-one], the inhibition at 0.1 µM [1] was 75.2%, the “blood pressure lowering activity (change in systolic blood pressure from pre-administration)” value [2] was “potent blood pressure lowering activity dose-dependently that was equivalent or more to telmisartan” and the plasma glucose concentration (db/db mice) was “remarkable lowering activity of the plasma glucose concentration”. For the same compound, the “AUC of plasma glucose in the glucose tolerance test (120 minutes after glucose solution)” value (db/db mice) was “remarkably lowering AUC”, the “elimination amount of urinary total protein per 18 hours” value [3] was “remarkably inhibited increase of the elimination amount of urinary total protein, and their activity was more potent than that of telmisartan” and the plasma triglyceride concentration [3] was “remarkably lowered the plasma triglyceride concentration”. For the same compound, the “plasma total cholesterol concentration” value [3] was “remarkably lowered the plasma total cholesterol concentration, and such activity was more potent than that of telmisartan” and the “renal protecting activity (diabetic nephropathy)” value [3] was “potent renal protecting activity”.
